# Source: ChEMBL document CHEMBL5321213, “Nicolaioidesin C: An Antiausterity Agent Shows Promising Antitumor Activity in a Pancreatic Cancer Xenograft Mouse Model” (J Nat Prod, 2023)
# Activity calls are given as the source filed them. No cut-off for these calls is given here.
# Experiments:
# MIA PaCa-2 [1] = test: Antitumor activity against human MIA PaCa-2 cells xenografted in athymic BALB/c-nu mouse assessed as fold change in N-acetylneuraminicacid level in tumor at 10 mg/kg/day, ip administered five times per week for 4 weeks by LC-MS analysis; type: functional
# MIA PaCa-2 [2] = test: Antimetastatic activity in human MIA PaCa-2 cells in nutrient-rich medium assessed as open wound area at 20 uM measured every 15 mins for 48 hrs by live cell imaging analysis (reference value: 17%); type: functional
# MIA PaCa-2 [3] = test: Antitumor activity against human MIA PaCa-2 cells xenografted in athymic BALB/c-nu mouse assessed as tumor wet weight at 10 mg/kg/day, ip administered five times per week for 4 weeks (reference value: 368 mg); type: functional
# MIA PaCa-2 [4] = test: Antitumor activity against human MIA PaCa-2 cells xenografted in athymic BALB/c-nu mouse assessed as fold change in 4-(methylthio)-2-oxobutyricacid level in tumor at 10 mg/kg/day, ip administered five times per week for 4 weeks by LC-MS analysis; type: functional
# MIA PaCa-2 [5] = test: Antitumor activity against human MIA PaCa-2 cells xenografted in athymic BALB/c-nu mouse assessed as fold change in methionine level in tumor at 10 mg/kg/day, ip administered five times per week for 4 weeks by LC-MS analysis; type: functional
# PANC-1 = test: Inhibition of autophagy in human PANC-1 cells in DMEM medium assessed as downregulation of LC3 protein expression at 5 to 20 uM measured after 6 hrs by Western blot analysis; type: functional, cell-based; conditions: dose 5-20 µM
# MIA PaCa-2 [6] = test: Antitumor activity against human MIA PaCa-2 cells xenografted in athymic BALB/c-nu mouse assessed as fold change in cytosine level in tumor at 10 mg/kg/day, ip administered five times per week for 4 weeks by LC-MS analysis; type: functional
# MIA PaCa-2 [7] = test: Antitumor activity against human MIA PaCa-2 cells xenografted in athymic BALB/c-nu mouse assessed as fold change in 1-aminocyclopropanecarboxylicacid level in tumor at 2 mg/kg/day, ip administered five times per week for 4 weeks by LC-MS analysis; type: functional
# MIA PaCa-2 [8] = test: Antitumor activity against human MIA PaCa-2 cells xenografted in athymic BALB/c-nu mouse assessed as fold change in tetramethyl urea level in tumor at 2 mg/kg/day, ip administered five times per week for 4 weeks by LC-MS analysis; type: functional
smiles,measurement,setting,value
COc1cc(O)c(C(=O)[C@@H]2CC=C(CCC=C(C)C)C[C@H]2c2ccccc2)c(O)c1,fold change (FC),MIA PaCa-2 [1],0.4
same,Activity,MIA PaCa-2 [2],66%
same,Activity,MIA PaCa-2 [3],119 mg
same,fold change (FC),MIA PaCa-2 [4],0.41
same,fold change (FC),MIA PaCa-2 [5],0.38
same,inhibition,PANC-1,inactive
same,fold change (FC),MIA PaCa-2 [6],0.44
same,fold change (FC),MIA PaCa-2 [7],0.8
same,fold change (FC),MIA PaCa-2 [8],0.76
